Legend:
[1] = tested on: hexokinase; conditions: cited from earlier work
[2] = cited from earlier work
[3] = tested on: isolated rat hepatocytes; conditions: cited from earlier work
[4] = tested on: rodents; conditions: cited from earlier work
[5] = tested on: Labrador Retrievers; assay: Annual kennel assessment of affective behavior in dogs fed control diet or control diet+MH; format: in vivo
Description: Annual kennel assessments (period of 5 years) have been conducted on dogs fed a control diet or a control diet+MH. This assessment included two cohorts of Labrador Retrievers. Cohort 1 included 39 neutered Labrador Retrievers, 12 male and 27 female, ranged in age from 5.1 to 8.2 years old at the beginning of the test-feeding period (mean age at the beginning of the study 6.7 years). Cohort 2 included 41 neutered Labrador Retrievers, 12 males and 29 females ranged in age from 2.0 to 6.1 years old at the beginning of the test feeding period (mean age at the beginning of the study 4.0 years). Each cohort was fed a control diet or a test diet where the only differences was inclusion of mHep-enriched avocado extract targeted to supply 2 mg/kg body weight of MH. All researchers, lab assistants, and assessors were blinded to the feeding groups. Dogs were assessed during August and September each year. Each scorer was instructed to operate independently. Trained assessors were categorized as either familiar or unfamiliar to the dogs. The familiar assessors were people that worked with the dogs on a regular basis. […] Each assessing group was comprised of a handler and two scorers. All dogs were assessed with three people in the room with at least one familiar scorer in each group. This created a total of three possible conditions: familiar handler, two familiar scorers (Fam/Fam); familiar handler, one unfamiliar scorer, one familiar scorer (Fam/Unfam); unfamiliar handler, one unfamiliar scorer, one familiar scorer (Unfam/Unfam). The behaviors are outlined in Table 1. Calculating score: Assessors were asked to score dogs on a scale from 1-5 including half scores. For the behavior items, a score of 1 signified “Fails To Do” while 5 signified “Excellent”. For the demeanor items, a score of 1 signified “Strongly” while a score of 5 signified “Not at All”. All necessary items were reverse scored to allow higher scores to indicate a more favorable score and lower score to indicate a less favorable score. The sums of the corresponding behavior and demeanor items were used to calculate the score for each of the two behavior components. These scores were used to compare changes across years and between groups. [table]

[6] = injected, rats, cited from earlier work
[7] = tested on: cats; assay: Behavioural assessment of play motivation in cats (weighted swing door); format: in vivo; conditions: vs same diets without MH
Description: Twenty cats (N=20) of similar age (˜2.5 years), and split 10 female (5 lean and 5 moderately overweight) and 10 male (5 lean and 5 moderately overweight). To effectively test the effects of MH on energy metabolism dietary energy needs, intended to maintain weight, were provided equally between animals on a body weight basis; therefore, each cat received 45 kcal ME/kg body weight/d (females) and 50 kcal ME/kg body weight/d (males).
For two weeks prior to the initiation of the study cats were fed Iams® Original Chicken. Diets were presented in kibble form and cats were fed individually at 7:00 am each day and will be permitted 60 minutes to eat during food offerings. This feeding protocol were maintained throughout the entire study except on days in which fasted blood/calorimetry samples are obtained as cats were fed following the sampling period which was no later than 9:00 am. […]
Two walled stalls (each measuring: 100 cm W×100 cm L×75 cm H; Quenn City polymers, Dayton, Ohio), one classified as the start box and the other the goal box, each with a plexi-glass roof containing a 1 cm diameter hole in the center, were placed next to each other and connected via a swing door (23 cm W×18 cm H). […] Cats were assessed two times per dietary treatment on day 14 and again on day 37 at approximately 5 hrs post feeding. […]

[8] = cited from earlier work; remark: listed apart in the source
[9] = tested on: Labrador Retrievers; assay: Serum Trp:LNAA ratio in dogs fed control diet or control diet +MH (HPLC amino acid analysis); format: in vivo; conditions: 200 ppm MH in the diet
Description: Brain serotonin is known to influence the mood. Serotonin is synthesized in the brain from tryptophan, which uptake into the brain is dependent on the plasma ratio of tryptophan to the sum of other large neutral amino acids (Trp/LNAA). Other large amino acids include leucine, isoleucine, valine, phenylalanmine and tyrosine. It is well accepted that carbohydrate rich diets increase this ration and protein rich diets decrease the ration, in other words, when there is decrease in insulin sensitivity and a greater glycemic response, greater Trp/LNAA ratios are expected. Blood samples for amino acid analysis were collected from a total of 51 dogs fed a control diet or a control diet +MH. The blood samples were collected from two cohorts of Labrador Retrievers. Cohort 1 included 19 neutered Labrador Retrievers, 5 male and 14 female, ranged in age from 12.6 to 15.7 years old at the time of sampling. Cohort 2 included 32 neutered Labrador Retrievers, 9 males and 23 females ranged in age from 8.3 to 12.5 years old at the time of sampling. Each cohort was fed similar a control diet or a test diet where the only differences was inclusion of mHep enriched avocado juice concentrate targeted to supply 200 ppm MH in the diet. The avocado juice concentrate was derived from whole fruit (flesh, peel and pit) avocados. […]

[10] = injected into a rat; cited from earlier work
[11] = 2 mg/kg body weight MH, vs control diet

Structure (SMILES): OC[C@H]1OC[C@H](O)[C@@H](O)[C@@H]1O [1,5-Anhydro-D-Glucitol, 1,5-anhydro-D-glucitol]
- enzymatic conversion to the 6-phosphate ([1]; compared with 2-deoxy-glucose): less efficient than that of 2-deoxy-glucose

Structure (SMILES): CO[C@@H]([C@H](O)[C@H](O)CO)[C@@H](O)C=O [3-O-methylglucose]
- metabolism of the analog ([2]; in contrast with 2-deoxy-D-glucose): not metabolized
- responses to administration (prevention of glucose utilization as energy source) relative to 2-deoxyglucose ([2]; rats): about seven times weaker than those to 2-deoxyglucose

Structure (SMILES): OC[C@H]1O[C@H](CO)[C@@H](O)[C@@H]1O [2,5-Anhydro-D-mannitol, 2,5-anhydro-D-mannitol]
- effect on glucose formation and utilization [3]: interfere in glucose formation and utilization

Structure (SMILES): O=CC[C@@H](O)[C@H](O)[C@H](O)CO [2-deoxy-D-glucose]
- side effects and toxicity ([4]; high doses): significant untoward side effects and toxicity have been observed
- mimicking metabolic hallmarks of caloric restriction ([4]; rodents, long-term, lower dose): can mimic some of the major metabolic hallmarks of caloric restriction and enhanced longevity, including reduced body temperature, weight loss, and lower fasting insulin levels

Structure (SMILES): O=C(CO)[C@@H](O)[C@@H](O)[C@H](O)[C@H](O)CO [mannoheptulose]
- comfort in new areas score ([5]; 2 mg/kg body weight MH, unfamiliar/unfamiliar condition, vs control diet): significantly better response
- score for ability to handle new areas [5, 11]: higher scores
- score for social interaction [5, 11]: higher scores
- social interaction score, difference between groups ([5]; fam/fam or unfam/unfam condition): not different
- remained in the body ([6]; a day after the injection): 5%
- excreted unchanged [6]: 66%
- metabolized [6]: 29%
- motivation to play [7]: significantly greater motivation to play
- mannoheptulose ingested appearing in urine ([8]; after oral administration): About 5%
- safety of oral doses ([8]; doses of 10 grams, humans, orally): safely administered
- Trp:LNAA concentrations, fasting vs 4 hrs post fed ([9]; Cohort 1 (older dogs), P>0.05): no differences
- Trp:LNAA concentrations, fasting vs 4 hrs post fed ([9]; old and young cohorts pooled): no differences

Structure (SMILES): O=C[C@H](O)[C@@H](O)[C@H](O)[C@H](S)CO [5-Thioglucose, 5-thio-D-glucose]
- excreted unchanged in urine [10]: 97%

Structure (SMILES): O=P(O)(O)OC[C@H]1OC[C@H](O)[C@@H](O)[C@@H]1O [1,5-anhydro-D-glucitol-6-phosphate]
- inhibition of hexokinase [1]: allosteric (non-competitive) inhibitor of hexokinase
